Data on two molecules can be found in patent US7115708B2 (priority 2001, dated 2006).

One data set has as its system tumor patients. The conditions noted are these: in vivo; cited from earlier work.
The test system of data set [1] is MCF-7.
Data set [2] concerns MIA PaCa-2.
Data set [3] deals with MCF-7. Put plainly: cells. The following applies: Homo sapiens, MCF7, read-out: Estimated IC50 (50% Inhibition Concentration).
Data set [4] deals with MIA PaCa-2. The experiment in a line: cells. The conditions noted are these: Homo sapiens, MIA PaCa-2, read-out: Estimated IC50 (50% Inhibition Concentration).

As to ^90Y-DOTA-lanreotide, in the data set on tumor patients, the “patients with stable tumor disease” value was “roughly 35%”, the toxicity reported entry is listed as “No acute or chronic severe hematological toxicity” and the “tumor patients with regressive disease” value is reported as 15%.
Turning to `CO[C@@]12[C@H](COC(N)=O)C3=C(C(=O)C(C)=C(N)C3=O)N1C[C@@H]1N[C@@H]12` [Mitomycin], the “Estimated TGI (Total Growth Inhibition)” value in the data set on MCF-7 [1] was 0.18 µM; in the data set on MIA PaCa-2 [2] it was 0.15 µM. The IC50 was 0.035 µM in the data set with MCF-7 [3] and 0.028 µM in the data set with MIA PaCa-2 [4].
